Data taken from publication PMC6273978, “Synthesis and Pharmacological Evaluation of Novel Pleuromutilin Derivatives with Substituted Benzimidazole Moieties” (Molecules, 2016).

Assays:
S. vitulinus = experiment: Oxford cup assay, zone of inhibition; format: cell-based, Staphylococcus vitulinus; settings: Mammaliicoccus vitulinus
Method in brief: (§1)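 Zone diameters read after 24–36 h incubation at 37 °C. Test compounds were applied at 320 and 160 µg/mL in Oxford cups on nutrient agar seeded with saline inocula standardized by McFarland. Triplicate runs.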

CYP2C19 = biological target: T1, CYP2C19 (Homo sapiens, UniProt P33261); experiment: Cytochrome P450 inhibition cocktail assay, human liver microsomes; format: in vitro ADME; settings: probe mephenytoin, metabolite 4-OH-S-mephenytoin
T1 construct: Twenty microliters of human liver microsomes (final concentration of 0.3 mg/mL); from tissue; host or cells: human liver microsomes
T1 sequence (P33261 whole entry): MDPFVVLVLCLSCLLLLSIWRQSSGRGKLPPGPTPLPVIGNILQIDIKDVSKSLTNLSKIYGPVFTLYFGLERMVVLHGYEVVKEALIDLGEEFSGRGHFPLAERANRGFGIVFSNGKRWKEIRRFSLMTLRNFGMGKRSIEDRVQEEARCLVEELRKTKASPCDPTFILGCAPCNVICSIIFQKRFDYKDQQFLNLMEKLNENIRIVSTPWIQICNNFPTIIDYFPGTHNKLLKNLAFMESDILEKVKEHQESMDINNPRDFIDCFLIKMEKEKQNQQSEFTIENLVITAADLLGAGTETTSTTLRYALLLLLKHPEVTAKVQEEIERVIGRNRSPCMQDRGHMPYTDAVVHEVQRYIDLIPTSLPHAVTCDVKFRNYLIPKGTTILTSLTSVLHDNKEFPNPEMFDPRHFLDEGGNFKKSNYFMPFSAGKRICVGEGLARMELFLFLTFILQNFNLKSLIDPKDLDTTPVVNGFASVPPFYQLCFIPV
Experimental: (§2) The cytochrome P450 (CYP) proteins form a large family of heme proteins that catalyze many reactions involved xenobiotic metabolism and biosynthesis of cholesterol, steroids, and other lipid components. Some chemicals could affect the disposition of conventional pharmaceuticals through the inhibition of CYP450 enzymes. […] The selective probe substrate concentrations were prepared near to its respective Km value, and the compound 3 concentration range is from […].
(§3) Compound 3 was screened for its ability to inhibit cytochrome P450 using a cocktail assay described previously. Briefly, 50 μL of compound 3 was added to 96-well plates, with final concentrations of 0.05, 0.1, 0.5, 1, 10, 50, and 100 μM, respectively. Twenty microliters of human liver microsomes (final concentration of 0.3 mg/mL) and 20 μL of probe substrates (Table 3) in 0.1 M Tris were added. After preincubation at 37 °C for 10 min, 10 μL of NADPH was added (final concentration of 1 mM), and the reaction started to incubate at the same temperature for 15 min. The reactions were then quenched by the addition of 100 μL of acetonitrile with a mixture of propranolol and nadolol (50 nM) used as an internal standard. After reactions were finished, the plates were centrifuged and the supernatants were analyzed for the five metabolites (Table 3) by LC/MS/MS.

CYP2D6 = biological target: T2, CYP2D6 (Homo sapiens, UniProt P10635); experiment: as above; format: in vitro ADME; settings: probe dextromethorphan, metabolite dextrophan
T2 construct: Twenty microliters of human liver microsomes (final concentration of 0.3 mg/mL); from tissue; host or cells: human liver microsomes
T2 sequence (P10635 whole entry): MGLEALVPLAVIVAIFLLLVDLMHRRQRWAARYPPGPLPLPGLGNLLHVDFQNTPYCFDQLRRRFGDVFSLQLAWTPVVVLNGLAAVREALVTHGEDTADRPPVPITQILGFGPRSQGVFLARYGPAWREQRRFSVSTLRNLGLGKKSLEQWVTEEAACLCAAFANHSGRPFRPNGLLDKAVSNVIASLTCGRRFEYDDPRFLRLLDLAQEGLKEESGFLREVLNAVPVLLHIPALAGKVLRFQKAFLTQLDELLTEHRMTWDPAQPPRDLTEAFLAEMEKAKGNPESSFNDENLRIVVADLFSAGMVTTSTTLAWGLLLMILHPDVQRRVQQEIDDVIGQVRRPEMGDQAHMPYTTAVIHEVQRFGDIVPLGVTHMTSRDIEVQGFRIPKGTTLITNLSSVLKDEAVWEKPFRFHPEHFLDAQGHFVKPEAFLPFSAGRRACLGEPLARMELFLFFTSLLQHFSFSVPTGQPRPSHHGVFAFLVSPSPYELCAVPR
Experimental: as §2, §3

CYP1A2 = biological target: T3, CYP1A2 (Homo sapiens, UniProt P05177); experiment: as above; format: in vitro ADME; settings: probe phenacetin, metabolite acetaminophen
T3 construct: Twenty microliters of human liver microsomes (final concentration of 0.3 mg/mL); from tissue; host or cells: human liver microsomes
T3 sequence (P05177 1-516): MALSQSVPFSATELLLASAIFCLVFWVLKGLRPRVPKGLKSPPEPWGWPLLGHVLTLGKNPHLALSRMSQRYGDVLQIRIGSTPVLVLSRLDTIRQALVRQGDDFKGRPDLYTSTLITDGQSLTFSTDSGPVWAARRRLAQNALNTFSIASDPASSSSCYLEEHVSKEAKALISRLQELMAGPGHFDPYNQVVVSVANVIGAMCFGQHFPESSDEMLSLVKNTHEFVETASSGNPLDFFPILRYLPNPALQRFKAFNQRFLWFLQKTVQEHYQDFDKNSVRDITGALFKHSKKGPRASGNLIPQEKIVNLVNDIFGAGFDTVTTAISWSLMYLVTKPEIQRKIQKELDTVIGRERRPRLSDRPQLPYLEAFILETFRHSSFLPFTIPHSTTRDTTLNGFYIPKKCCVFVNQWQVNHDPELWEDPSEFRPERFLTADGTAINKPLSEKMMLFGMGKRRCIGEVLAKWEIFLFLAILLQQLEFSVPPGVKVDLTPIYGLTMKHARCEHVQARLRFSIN
Experimental: as §2, §3

CYP3A4 = biological target: T4, CYP3A4 (Homo sapiens, UniProt P08684); experiment: as above; format: in vitro ADME; settings: probe midazolam, metabolite 1-OH-midazolam
T4 construct: Twenty microliters of human liver microsomes (final concentration of 0.3 mg/mL); from tissue; host or cells: human liver microsomes
T4 sequence (P08684 whole entry): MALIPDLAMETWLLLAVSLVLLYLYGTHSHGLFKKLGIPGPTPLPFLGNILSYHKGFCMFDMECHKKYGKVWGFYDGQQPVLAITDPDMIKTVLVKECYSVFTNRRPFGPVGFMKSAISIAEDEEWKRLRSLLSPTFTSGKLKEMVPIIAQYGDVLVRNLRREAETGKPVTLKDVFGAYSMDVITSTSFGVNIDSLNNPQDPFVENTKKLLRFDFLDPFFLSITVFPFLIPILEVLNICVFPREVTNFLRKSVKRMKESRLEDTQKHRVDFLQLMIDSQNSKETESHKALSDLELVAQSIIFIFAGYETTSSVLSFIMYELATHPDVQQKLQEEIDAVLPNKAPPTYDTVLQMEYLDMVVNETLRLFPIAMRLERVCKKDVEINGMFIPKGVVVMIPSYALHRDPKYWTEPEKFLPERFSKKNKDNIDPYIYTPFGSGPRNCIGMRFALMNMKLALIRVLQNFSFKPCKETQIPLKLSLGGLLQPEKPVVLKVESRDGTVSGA
Experimental: as §2, §3

CYP2C9 = biological target: T5, CYP2C9 (Homo sapiens, UniProt P11712); experiment: as above; format: in vitro ADME; settings: probe diclofenac, metabolite 4-OH-diclofenac
T5 construct: Twenty microliters of human liver microsomes (final concentration of 0.3 mg/mL); from tissue; host or cells: human liver microsomes
T5 sequence (P11712 whole entry): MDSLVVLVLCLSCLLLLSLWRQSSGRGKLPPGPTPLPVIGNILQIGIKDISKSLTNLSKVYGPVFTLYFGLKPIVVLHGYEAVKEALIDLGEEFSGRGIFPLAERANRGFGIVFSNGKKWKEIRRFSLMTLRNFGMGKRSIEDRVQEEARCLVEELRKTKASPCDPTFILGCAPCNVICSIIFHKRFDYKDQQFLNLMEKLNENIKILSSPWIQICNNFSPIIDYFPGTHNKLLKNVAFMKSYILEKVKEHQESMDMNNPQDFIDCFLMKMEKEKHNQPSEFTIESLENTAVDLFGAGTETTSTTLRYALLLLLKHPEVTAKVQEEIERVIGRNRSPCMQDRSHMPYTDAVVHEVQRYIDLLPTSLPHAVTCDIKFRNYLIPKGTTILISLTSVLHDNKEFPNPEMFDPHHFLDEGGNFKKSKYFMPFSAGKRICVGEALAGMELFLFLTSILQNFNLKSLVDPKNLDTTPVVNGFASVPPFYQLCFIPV
Experimental: as §2, §3

MRSA [1] = experiment: Inhibition of short-term bacterial growth (absorbance at 450 nm); format: cell-based; settings: Staphylococcus aureus, 3.5 h incubation, Mueller-Hinton broth
Experimental: (§4) Compound 3, being the best antibacterial derivative, was chosen for further evaluation on its antibacterial effect to inhibit short-term S. aureus and MRSA growth (Figure 2). This includes the GI50 of tiamulin fumarate for S. aureus and MRSA.
(§5) The inhibition activities of test compounds were evaluated by measuring the absorbance of the bacterial suspension. In brief, inoculums were prepared from blood slants and adjusted to approximately 10^6 CFU/mL in Muellere-Hinton broth. The 0.0625, 0.125, 0.25, 0.5, 1, and 2 µM of tested compounds were prepared and added to the prepared inoculums. A sample of inoculum with no compound was used as control. The absorbance of bacterial suspension at 450 nm was measured using an UV spectrophotometer after 3.5 h of incubation, and the inhibition was calculated as 1 − (A^P/A^0), where A^p and A^0 are the absorbance of bacterial suspension in the presence and absence of compounds, respectively. The same procedure was independently repeated in triplicate.

S. aureus [2] = experiment: as above; format: cell-based; settings: Staphylococcus aureus, 3.5 h, read-out: GI50 S. aureus growth
Experimental: as §4, §5

S. haemolyticus = experiment: Oxford cup assay, zone of inhibition; format: cell-based; settings: Staphylococcus haemolyticus
Method in brief: as §1

S. warneri = experiment: Oxford cup assay, zone of inhibition; format: cell-based; settings: Staphylococcus warneri
Method in brief: as §1

E. coli = experiment: Oxford cup assay, zone of inhibition; format: cell-based; settings: Escherichia coli
Method in brief: as §1

MRSA [3] = experiment: Oxford cup assay, zone of inhibition; format: cell-based; settings: Staphylococcus aureus
Method in brief: as §1

S. aureus [4] = experiment: Oxford cup assay, zone of inhibition; format: cell-based; settings: Staphylococcus aureus
Method in brief: as §1

Compound: C=C[C@]1(C)C[C@@H](OC(=O)CSc2nc3ccc(N)cc3[nH]2)[C@]2(C)[C@H](C)CC[C@]3(CCC(=O)[C@H]32)[C@@H](C)[C@@H]1O [Compound 3, 14-O-((5-Amino-benzimidazole-2-yl)thioacetyl) Mutilin]
- zone of inhibition at 160 µg/mL (S. vitulinus; 160 µg/mL): 25.5 mm
- zone of inhibition at 320 µg/mL (S. vitulinus; 320 µg/mL): 29.6 mm
- IC50 (CYP2C19): > 50000 nM
- IC50 (CYP2D6): > 100000 nM
- IC50 (CYP1A2): > 50000 nM
- IC50 (CYP3A4): 1690 nM
- IC50 (CYP2C9): 10700 nM
- GI50 (MRSA [1]): 175 nM
- GI50 (S. aureus [2]): 98.7 nM
- zone of inhibition at 160 µg/mL (S. haemolyticus; 160 µg/mL): 30.3 mm
- zone of inhibition at 320 µg/mL (S. haemolyticus; 320 µg/mL): 33 mm
- zone of inhibition at 160 µg/mL (S. warneri; 160 µg/mL): 28 mm
- zone of inhibition at 320 µg/mL (S. warneri; 320 µg/mL): 32.3 mm
- zone of inhibition at 160 µg/mL (E. coli; 160 µg/mL): 21.4 mm
- zone of inhibition at 320 µg/mL (E. coli; 320 µg/mL): 25.5 mm
- zone of inhibition at 160 µg/mL (MRSA [3]; 160 µg/mL): 25.4 mm
- zone of inhibition at 320 µg/mL (MRSA [3]; 320 µg/mL): 30.6 mm
- zone of inhibition at 160 µg/mL (S. aureus [4]; 160 µg/mL): 27.3 mm
- zone of inhibition at 320 µg/mL (S. aureus [4]; 320 µg/mL): 29.6 mm
